Source: patent US10253002B2, “Compounds and methods of treating infections” (Neoculi Pty Ltd., priority 2013, dated 2019)
≈ marks a conversion by molar mass, not a printed value. Where “and” joins values, the source holds several entries; their conditions need not be identical. Identical values can stand only once. One block for each compound: values may come before it.

Assays:
Pseudomonas aeruginosa = assay: Broth microdilution MIC, Example 7 (NCL812 and analogues); format: cell-based; conditions: Pseudomonas #008, 24 hours
E. faecalis #32 = assay: Broth microdilution MIC, Example 7 (NCL analogues), Table 42; format: cell-based, Enterococcus faecalis; conditions: E. faecalis #32, 24 hours
S. aureus ATCC29213 = assay: as above; format: cell-based, Staphylococcus aureus; conditions: S. aureus ATCC29213, 24 hours
Escherichia coli = assay: Broth microdilution MIC, Example 7 (NCL812 and analogues); format: cell-based; conditions: E. coli ATCC25922, 24 hours
[1] = system: S. aureus isolates (HA-MRSA, CA-MRSA, methicillin-susceptible staphylococci); assay: Kirby-Bauer disc diffusion resistotyping, Example 4; format: cell-based, Staphylococcus aureus; conditions: for Total isolates resistant (Kirby-Bauer disc diffusion): all isolates (n = 30)
How it was run: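 CLSI Kirby-Bauer disc diffusion on Mueller-Hinton agar. Overnight SBA cultures (37 °C) were suspended in saline and adjusted to 0.5 McFarland before spreading. Antibiotic discs were read after 24 h at 37 °C.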

[2] = system: Staphylococcus aureus T3-129 / Staphylococcus spp. MK1; assay: Synergy studies, checkerboard method (FIC index); format: cell-based; conditions: S. aureus strain T3-29
S. pneumoniae isolates [3] = assay: Micro-broth dilution MIC, Example 5; format: cell-based, Streptococcus pneumoniae; conditions: Streptococcus pneumoniae, isolate D39; Table 28
Protocol: For all in vitro assays, fresh pneumococcal isolates were grown overnight (O/N) on horse blood agar (HBA) plates (39 g/L Columbia blood agar base [Oxoid] 5% [v/v] defribinated horse blood [Oxoid] at 37° C. with 5% supplemented CO2). Mueller-Hinton blood agar with 5% defibrinated sheep blood (MHSBA Roseworthy Media and Blood Service) was used for disk diffusion analysis as directed by Clinical Laboratory Standards Institute (CLSI) standards. Pneumococci were routinely grown in broth consisting of 4% lysed horse blood (LHB) with Cation Adjusted Mueller Hinton Broth (CAHMB, [Difco]) at 37° C. with 5% supplemented CO2. […] Isolates were stored in HSB at −80° C.
(§1) [Micro-broth dilutions and 96 well trays are prepared by the following method: 90 μL of 4% LHB:CAMHB is aliquotted into all wells using a multichannel pipette. 90 μL of working antimicrobial stocks were no serial diluted down the tray by a 1:2 dilution. Negative broth controls and dilution control were taken into account when planning the set up of a 96 well tray.] 10 μL of bacterial suspension was then added to the appropriate wells in the 96 well tray. Appropriate positive (no antimicrobial), negative (no antimicrobial or bacteria) and negative dilution (a serial dilution control of antimicrobial and broth) controls were included in each assay. […] The MBC was determined by a 99.95% inhibition of S. pneumoniae, taking into account the dilution factor. MICs and MBCs were determined in quadruplicate and the mode was taken as the representative value. The MIC50, MIC90 and MIC range and MBC50, MBC90 and MBC range were determined according to CLSI standards. The MIC50 and MIC90, or MBC50 and MBC90, are defined by the lowest concentrations which, when all the MICs and MBCs of the isolates are arranged from lowest to highest, inhibited the 50th and 90th percentile of the total amount of isolates, respectively.

S. pneumoniae isolates [4] = assay: MBC, Example 5; format: cell-based, Streptococcus pneumoniae; conditions: Streptococcus pneumoniae, isolate D39; Table 28; read-out: MBC
Protocol: as §1

S. pneumoniae isolates [5] = assay: Disk diffusion susceptibility (CLSI/EUCAST), Example 5; format: cell-based, Streptococcus pneumoniae
How it was run: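 Susceptibility to 12 antimicrobials was categorised (S/I/R) using CLSI breakpoints from zones of complete inhibition, read thrice to the nearest millimetre with the mode taken. Incubation was 16–24 h, 37 °C, 5% CO2.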

SMILES: CC(Nc1cc(Cl)nc(N)n1)c1ccccc1 (stereo not drawn) [NCL 182]
MIC (μg/ml) at 24 hours Pseudomonas #008 (Pseudomonas aeruginosa): >64 µg/mL
MIC (μg/ml) at 24 hours E. faecalis #32 (E. faecalis #32): >64 µg/mL
MIC (μg/ml) at 24 hours S. aureus ATCC29213 (S. aureus ATCC29213): >64 µg/mL
MIC (μg/ml) at 24 hours E. coli ATCC25922 (Escherichia coli): >64 µg/mL

SMILES: CC[C@H]1OC(=O)[C@H](C)[C@@H](O[C@H]2C[C@@](C)(OC)[C@@H](O)[C@H](C)O2)[C@H](C)[C@@H](O[C@@H]2O[C@H](C)C[C@H](N(C)C)[C@H]2O)[C@](C)(O)C[C@@H](C)C(=O)[C@H](C)[C@@H](O)[C@]1(C)O [Erythromycin]
isolates resistant (Kirby-Bauer disc diffusion) ([1]; CA-MRSA (n = 10)): 100.00%
isolates resistant (Kirby-Bauer disc diffusion) ([1]; HA-MRSA (n = 10)): 80.00%
isolates resistant (Kirby-Bauer disc diffusion) ([1]; Methicillin-susceptible staphylococci (n = 10)): 40.00%
Total isolates resistant (Kirby-Bauer disc diffusion) [1]: 73.33%
Total isolates resistant (Kirby-Bauer disc diffusion) ([1]; listed as erythromycin): 73.33%
FICI ([2]; FIC index of antibiotic with NCL812): 0.75 and 0.562 and 0.5 and 0.531
Antibiotic MIC Alone ([2]; antibiotic alone): 0.25 µg/mL
Result (interaction with NCL812) ([2]; antibiotic with NCL812): NE (No effect (NE) was defined as 0.5<FICI<4)
MIC (S. pneumoniae isolates [3]): 0.00275 µg/mL (≈ 0.00375 µM)
MBC (S. pneumoniae isolates [4]): 0.00275 µg/mL (≈ 0.00375 µM)
disk diffusion zone diameter (S. pneumoniae isolates [5]; A66.1): 33 mm
disk diffusion zone diameter (S. pneumoniae isolates [5]; D39): 35 mm
disk diffusion zone diameter (S. pneumoniae isolates [5]; EF3030): 30 mm
disk diffusion zone diameter (S. pneumoniae isolates [5]; L82016): 29 mm
disk diffusion zone diameter (S. pneumoniae isolates [5]; P9): 32 mm
disk diffusion zone diameter (S. pneumoniae isolates [5]; P21): 35 mm
disk diffusion zone diameter (S. pneumoniae isolates [5]; TIGR4): 34 mm
disk diffusion zone diameter (S. pneumoniae isolates [5]; WCH16): 34 mm
disk diffusion zone diameter (S. pneumoniae isolates [5]; WCH43): 29 mm
disk diffusion zone diameter (S. pneumoniae isolates [5]; WCH46): 27 mm
disk diffusion zone diameter (S. pneumoniae isolates [5]; WCH57): 41 mm
disk diffusion zone diameter (S. pneumoniae isolates [5]; WCH77): 37 mm
disk diffusion zone diameter (S. pneumoniae isolates [5]; WCH86): 30 mm
disk diffusion zone diameter (S. pneumoniae isolates [5]; WCH89): 35 mm
disk diffusion zone diameter (S. pneumoniae isolates [5]; WCH92): 28 mm
disk diffusion zone diameter (S. pneumoniae isolates [5]; WCH137): 34 mm
disk diffusion zone diameter (S. pneumoniae isolates [5]; WCH158): 34 mm
disk diffusion zone diameter (S. pneumoniae isolates [5]; WCH184): 10 mm
disk diffusion susceptibility category (S. pneumoniae isolates [5]; WCH184 (Table 19)): R
disk diffusion zone diameter (S. pneumoniae isolates [5]; WCH211): 33 mm
disk diffusion zone diameter (S. pneumoniae isolates [5]; WU2): 34 mm
Resistance status to Erythromycin (S. pneumoniae isolates [5]; isolate D39): Sensitive

SMILES: OC/C(=N\Nc1cc(N/N=C(\CO)c2ccc(Cl)cc2)ncn1)c1ccc(Cl)cc1 [NCL 180]
MIC (μg/ml) at 24 hours Pseudomonas #008 (Pseudomonas aeruginosa): >64 µg/mL
MIC (μg/ml) at 24 hours E. faecalis #32 (E. faecalis #32): 64 µg/mL (≈ 144 µM)
MIC (μg/ml) at 24 hours S. aureus ATCC29213 (S. aureus ATCC29213): >64 µg/mL
MIC (μg/ml) at 24 hours E. coli ATCC25922 (Escherichia coli): >64 µg/mL

SMILES: Clc1ccc(/C=N/Nc2cc(N/N=C/c3ccc(Cl)cc3)ncn2)cc1 [NCL 181]
MIC (μg/ml) at 24 hours Pseudomonas #008 (Pseudomonas aeruginosa): >64 µg/mL
MIC (μg/ml) at 24 hours E. faecalis #32 (E. faecalis #32): >64 µg/mL
MIC (μg/ml) at 24 hours S. aureus ATCC29213 (S. aureus ATCC29213): >64 µg/mL
MIC (μg/ml) at 24 hours E. coli ATCC25922 (Escherichia coli): >64 µg/mL

Now from value to compound:

MIC (μg/ml) at 24 hours Pseudomonas #008 (Pseudomonas aeruginosa): >64 µg/mL
MIC (μg/ml) at 24 hours E. faecalis #32 (E. faecalis #32): >64 µg/mL
MIC (μg/ml) at 24 hours S. aureus ATCC29213 (S. aureus ATCC29213): >64 µg/mL
MIC (μg/ml) at 24 hours E. coli ATCC25922 (Escherichia coli): >64 µg/mL
SMILES: Cl.N=C(N)NN=C(C(=O)O)c1ccccc1 [NCL 192]

MIC (μg/ml) at 24 hours Pseudomonas #008 (Pseudomonas aeruginosa): >64 µg/mL
MIC (μg/ml) at 24 hours E. faecalis #32 (E. faecalis #32): 32 µg/mL
MIC (μg/ml) at 24 hours S. aureus ATCC29213 (S. aureus ATCC29213): 32 µg/mL
MIC (μg/ml) at 24 hours E. coli ATCC25922 (Escherichia coli): 64 µg/mL
SMILES: Cl.[H]/N=C(\N)NN=C(CCCC)c1ccc(Cl)cc1 [NCL 188]

MIC (μg/ml) at 24 hours Pseudomonas #008 (Pseudomonas aeruginosa): >64 µg/mL
MIC (μg/ml) at 24 hours E. faecalis #32 (E. faecalis #32): >64 µg/mL
MIC (μg/ml) at 24 hours S. aureus ATCC29213 (S. aureus ATCC29213): >64 µg/mL
MIC (μg/ml) at 24 hours E. coli ATCC25922 (Escherichia coli): >64 µg/mL
SMILES: C/C(=N\NC(=N)N)c1ccc(Cl)cc1.Cl [NCL 191]

MIC (μg/ml) at 24 hours Pseudomonas #008 (Pseudomonas aeruginosa): >64 µg/mL
MIC (μg/ml) at 24 hours E. faecalis #32 (E. faecalis #32): 64 µg/mL
MIC (μg/ml) at 24 hours S. aureus ATCC29213 (S. aureus ATCC29213): 32 µg/mL and 64 µg/mL
MIC (μg/ml) at 24 hours E. coli ATCC25922 (Escherichia coli): >64 µg/mL
SMILES: Cl.[H]/N=C(/N)NN=C(CNN)c1ccc(Cl)cc1 [NCL 190]
